Measured values as given in ChEMBL document CHEMBL1155088, “A new sesquiterpene lactone from the roots of Saussurea lappa: structure-anticancer activity study” (Bioorg Med Chem Lett, 2008).
Converted amounts (≈) assume the structure as drawn. The source made the active and inactive calls. The calls are words filed in the database; no cut-off is given here.

Columns and labels:
Assay type in all cases: functional, cell-based
A-431 = test: Cytotoxicity against human A431 cells after 48 hrs by MTT assay
MCF7 = test: Cytotoxicity against human MCF7 cells after 48 hrs by MTT assay; conditions: MCF7, 48 h
COLO 205 = test: Cytotoxicity against human COLO205 cells after 48 hrs by MTT assay; conditions: for IC50: COLO 205, 48 h
A549 = test: Cytotoxicity against human A549 cells after 48 hrs by MTT assay

Structure (SMILES)	Activity (A-431)	IC50 (MCF7)	IC50 (COLO 205)	Activity (A549)	IC50 (A-431; A-431, 48 h)	IC50 (A549; A549, 48 h)	Activity (COLO 205)
C/C1=C\[C@H]2OC(=O)[C@@H](C)[C@@H]2CC/C(C)=C/CC1 [DIHYDRO COSTUNOLIDE]	inactive	57.9 µg/mL (≈ 247 µM)	134 µg/mL (≈ 572 µM)	inactive			
C=C1C(=O)O[C@@H]2/C=C(\C)CCC[C@H](C)CC[C@H]12 [ISODIHYDROCOSTUNOLIDE]		35 µg/mL (≈ 150 µM)	27 µg/mL (≈ 115 µM)		107 µg/mL (≈ 457 µM)	125 µg/mL (≈ 533 µM)	
COC[C@@H]1C(=O)O[C@@H]2/C=C(\C)CC/C=C(\C)CC[C@@H]12	inactive	75 µg/mL (≈ 284 µM)	220 µg/mL (≈ 832 µM)	inactive			
COC[C@@H]1C(=O)O[C@H]2[C@H]1CC[C@@]1(C)CCCC3(OCOO3)[C@H]21 (some centres undefined)	inactive	180 µg/mL (≈ 577 µM)		inactive			inactive
C=C1CCC[C@]2(C)CC[C@@H]3[C@H](OC(=O)[C@H]3COC)[C@@H]12	inactive	88.5 µg/mL (≈ 335 µM)	110 µg/mL (≈ 415 µM)	inactive			
COC[C@@H]1C(=O)O[C@H]2[C@H]1CC[C@@]1(C)CCCC(=O)[C@H]21	inactive	103 µg/mL (≈ 388 µM)		inactive			inactive
